Counter-ions that a name gives are not always drawn. Like-named read-outs stand apart in the source and are kept apart here.
Tests used:
[1] = tested on: Rat arteries (arterial contractions, entry of calcium ions into the cells of smooth muscles); experiment: In vitro anticalcic activity (inhibition of potassium-depolarized, calcium-induced contractions of isolated rat arteries); type: cell-based; conditions: dose inhibiting by 50% the contractions caused by potassium ions (100 mM), 37° C., read-out: CI50 (the source's name)
Procedure: Rat arteries decoupled in a spiral were attached to a tension collector and were maintained in tanks containing 2.5 ml of Krebs-sodium bicarbonate buffer (NaCl: 120.8 mM, KCl: 5.9 mM, MgCl2 : 1.2 mM, NaH2 PO4 : 1.2 mM, NaHCO3 : 15.5 mM, glucose: 12.6 mM), at 37° C. covered with a 95%-5% oxygen-carbon dioxide mixture. The preparations were depolarized with a buffered solution containing 100 mM of potassium ions (NaCl: 26.7 mM, KCl: 100 mM, MgCl2 : 1.2 mM, NaH2 PO4 : 1.2 mM, NaHCO3 : 15.5 mM, glucose 12.6 mM).
A volume of 25 μl of calcium chloride was added to the mixture in a manner to obtain a range of increasing concentrations of calcium ions from 0.1 to 3.0 mM and the contractions of the artery were measured to obtain a control. The operation with range of calcium ions was repeated every 15 minutes and the preparation was washed 4 times after each range. When a stable response was obtained, the operation with the range of calcium ions was effected in the presence of varying concentrations of test compounds until a stable response was obtained.
The arterial contractions depend on the entry of calcium ions into the cells of smooth muscles and are provoked by depolarization of smooth muscles by potassium ions and by action of noradrenaline freed by presynapthic level. By recommencing the operation with denerved arteries by the action of 6-hydroxy-dopamine, the specific action due to noradrenaline is suppressed.

[2] = tested on: cardiac rhythm troubles in guinea pigs; experiment: Antiarythmic action (K-strophanthine and adrenaline induced cardiac rhythm troubles); type: in vivo, guinea pig; conditions: Cavia porcellus, 1 h, oral 10 mg/kg, one hour before K-strophanthine and adrenaline perfusion, read-out: Percentage of protection (lengthening of the time of appearance of cardiac rhythm troubles as compared to controls)
Procedure: Male guinea pigs weighing between 450 and 500 g were tracheotomized while anesthesized by intraperitoneal administration of […] of urethane and were subjected to artifical respiration of 40 to 50 breaths of 5 ml per minute. Needles were subcutaneously implanted to register an electrocardiogram of the guinea pigs for the signal of D II derivation. The test products were orally administered and one hour later, the jugular vein of the guinea pigs were perfused with 0.5 ml per minute of a solution of 150 γ/ml of K-strophanthine and 0.5 ml per minute of a solution of 5 γ/ml of adrenaline and the number of times of the appearance of cardiac rhythm troubles was noted. The results are expressed in percentage of protection with an oral dose of 10 mg/kg of test product that is to say the percentage of lengthening of the time of appearance of cardiac rhythm troubles as compared to the controls.

[3] = tested on: carotidien arterial pressure in rats; experiment: Hypotensive activity (carotidien arterial pressure in anesthesized rats); type: in vivo, rat (Wistar); conditions: rat, intravenous
Procedure: The hypotensive activity was studied on male rats of the Wistar strain weighing about 300 g and anesthesized with 50 mg/kg of nembutal intraveinously. The test products were administered intraveinously by the jugular vein and the carotidien arterial pressure was measured before and after administration of the test compounds. The variations expressed in percentage of arterial pressure after administration with respect to the initial pressure is reported in Table IV.

α1 adrenergic receptors = experiment: Affinity for α1 adrenergic receptors (3H prazosine displacement, rat brain); type: binding; conditions: relative to phentolamine (ARL=100×(CB/CX)), 25° C., pH 7.7
Procedure: After centrifugation at 30,000 g for 15 minutes at 0° to 4° C., the culot was suspended in 240 ml of buffer Tris HCl 50 mM (pH-7.7) and the suspension was centrifuged at 30,000 g for 20 minutes at 0° to 4° C. The new culot was suspended in 480 ml of buffer Krebs Tris HCl (pH of 7.7-50 mM) and 2 ml of the suspension in the presence of 3H prazosine at a concentration of […] alone and with increasing concentrations of the test compound or with non-radioactive phentolamine at a concentration of 10^-5 M to determine the non-specific fixation was incubated at 25° C. for 30 minutes.
The incubated suspensions were filtered through Whatman FG/C and the filtered were washed with 3 times with 5 ml of buffer Krebs Tris HCl-pH of 7.7 at 0° to 4° C. The radioactivity of the filters was measured by liquid scintillation and the affinity of the test compound for α1 adrenergic receptors was compared relative to phentolamine as the reference compound by the formula
CD=concentration of phentolamine inhibiting by 50% the specific fixation of 3H prazosine.
CX=concentration of test product inhibiting by 50% the specific fixation of 3H prazosine.

β1 adrenergic receptors = biological target: T1, β1 adrenergic receptors (Rattus norvegicus, UniProt P18090); experiment: Affinity for β1 adrenergic receptors (3H dihydroalprenolol displacement, rat brain cortex); type: binding; conditions: relative to propranolol, 37° C., pH 7.7
T1 construct: 10 cortexes removed from the brains of male rats weighing an average of 150 g; from tissue; host or cells: cerebral cortex of male rats (membranes)
Procedure: The test was inspired by that of Mohler et al [Science, Vol. 198 (1977), p. 849-851] and 10 cortexes removed from the brains of male rats weighing an average of 150 g were homogenized in 90 ml of 0.32M of sucrose. After centrifuging the homogenized mixture at 1000 g for 20 minutes at 0° C., the surnageant was centrifuged at 30,000 g for 15 minutes at 0° to 4° C. The culot was suspended in 120 ml of buffer Tris HCl 50 mM with a pH of 7.7 and was centrifuged at 30,000 g for 15 minutes at 0° to 4° C. The resulting culot was suspended in 480 ml of buffer Krebs Tris HCl (50 mM-pH of 7.7) and 2 ml of the suspension in the presence of 3H dihydroalprenolol at a concentration of 10^-9 M alone and with increasing concentrations of the test compound or with non-radioactive propranolol at a concentration of 10^-5 M to determine the non-specific fixation was incubated at 37° C. for 10 minutes.
The incubated suspensions were filtered through Whatman GF/C and the filters were washed 3 times with 5 ml of buffer Krebs Tris HCl (pH-7.7) at 0° C. The radioactivity of the filters was measured by liquid scintillation and the affinity of the test compounds for β1 -adrenergic receptors was compared using propranolol as a standard as in Test D. The results are reported in Table VI.

β2 -adrenergic receptors = biological target: T2, β2 -adrenergic receptors (Rattus norvegicus, UniProt P10608); experiment: Affinity for β2 adrenergic receptors (3H dihydroalprenolol displacement, rat cerebellum); type: binding; conditions: relative to propranolol, 37° C., pH 7.7
T2 construct: cerebellums of male rats weighing an average of 150 g; from tissue; host or cells: cerebellum of male rats (membranes)
Procedure: The technique was inspired by that of Mohler et al [Science, Vol. 198 (1977), p. 849-851] and the cerebellums of male rats weighing an average of 150 g were homogenized in 90 ml of 0.32M sucrose. After centrifugation of the homogenized mixture at 1000 g for 20 minutes at 0° C., the surnageant was centrifuged at 30,000 g for 15 minutes at 0° to 4° C. The culot was suspended in 120 ml of buffer Tris HCl (50 mM-pH of 7.7) and the suspension was centrifuged at 30,000 g for 15 minutes at 0° to 4° C. The resulting culot was suspended in 480 ml of buffer Krebs Tris HCl with a pH of 7.7 and 2 ml of the suspension was incubated at 37° C. for 10 minutes in the presence of 3H dihydroalprenolol at a concentration of 10^-9 M alone and with increasing concentrations of the test compound or with 10^-5 M of non-radioactive propranolol to determine the non-specific fixation.
The incubated suspensions were filtered through Whatman FG/C filter and the filters were rinsed 3 times with 5 ml of buffer Krebs Tris HCl with a pH of 7.7 at 0° C. The radioactivity of the filters was measured by liquid scintillation and the affinity of the test compounds for β2 -adrenergic receptors relative to propranolol as a standard was determined similar as to Test D. The results are reported in Table VII.

mice = experiment: Acute toxicity (DL0, oral); type: in vivo, mouse; parameters: unit not given here
[4] = 1 min, 1 minute, read-out: % Variation of arterial pressure after administration, 1 minute
[5] = 5 min, 5 minutes, read-out: % Variation of arterial pressure after administration, 5 minutes
[6] = 10 min, 10 minutes, read-out: % Variation of arterial pressure after administration, 10 minutes
[7] = 0.5 h, 30 minutes, read-out: % Variation of arterial pressure after administration, 30 minutes

T2 sequence (P10608 whole entry): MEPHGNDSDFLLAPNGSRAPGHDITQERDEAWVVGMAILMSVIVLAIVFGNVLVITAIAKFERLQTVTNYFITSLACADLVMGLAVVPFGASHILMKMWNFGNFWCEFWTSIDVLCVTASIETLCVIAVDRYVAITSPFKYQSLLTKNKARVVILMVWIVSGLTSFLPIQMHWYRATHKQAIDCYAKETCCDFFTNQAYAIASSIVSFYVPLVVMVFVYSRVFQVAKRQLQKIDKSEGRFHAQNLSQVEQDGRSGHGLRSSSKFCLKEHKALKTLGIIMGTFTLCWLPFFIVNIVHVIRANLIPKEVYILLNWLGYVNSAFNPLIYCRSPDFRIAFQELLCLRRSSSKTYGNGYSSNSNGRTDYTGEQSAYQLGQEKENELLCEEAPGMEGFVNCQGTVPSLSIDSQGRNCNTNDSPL
T1 sequence (P18090 whole entry): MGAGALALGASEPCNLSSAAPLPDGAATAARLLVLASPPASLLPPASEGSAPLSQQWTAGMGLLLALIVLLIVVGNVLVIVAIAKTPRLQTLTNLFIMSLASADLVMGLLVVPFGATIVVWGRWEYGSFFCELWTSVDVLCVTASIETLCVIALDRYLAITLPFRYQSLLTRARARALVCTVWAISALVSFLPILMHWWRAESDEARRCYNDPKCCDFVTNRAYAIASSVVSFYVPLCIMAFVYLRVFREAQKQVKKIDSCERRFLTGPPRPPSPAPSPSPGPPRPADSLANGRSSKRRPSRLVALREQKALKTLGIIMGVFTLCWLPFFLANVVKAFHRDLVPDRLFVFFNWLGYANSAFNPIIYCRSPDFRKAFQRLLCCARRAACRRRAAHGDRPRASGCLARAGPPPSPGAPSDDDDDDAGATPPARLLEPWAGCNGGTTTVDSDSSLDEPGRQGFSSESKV

SMILES | IC50 [1] | change in vivo at 10 mg/kg [2] | change in vivo at 1 mg/kg [3, 4] | change in vivo at 1 mg/kg [3, 5] | change in vivo at 1 mg/kg [3, 6] | change in vivo at 1 mg/kg [3, 7] | % Arl (relative affinity for α1 adrenergic receptors) (α1 adrenergic receptors) | ARL in % (relative affinity for β1 adrenergic receptors) (β1 adrenergic receptors) | ARL in % (relative affinity for β2 adrenergic receptors) (β2 -adrenergic receptors) | DL0 (maximum dose which did not cause any deaths after 8 days) (mice)
N#Cc1ccccc1OCC(O)CN1CCC(c2c[nH]c3ccccc23)CC1 (stereo not drawn) [Example 4, 4-(1H--indol-3-yl)-α-[2-cyanophenoxymethyl]-piperidine-1-ethanol hydrochloride] | 3.5 µM | 148% | -24% | -21% | -22% | -26% | 145% | 13.3% | 1.1% | > 100
COC(=O)c1ccccc1OCC(O)CN1CCC(c2c[nH]c3ccccc23)CC1 (stereo not drawn) [Example 6, 4-(1H--indol-3-yl)-α-[2-methoxycarbonyl-phenoxymethyl]-piperidine-1-ethanol hydrochloride] | 3 µM | 37% | -21% | -13% | -13% | 0% | 253% | 1.3% | 3.5% | 80
CC(=O)c1ccccc1OCC(O)CN1CCC(c2c[nH]c3ccccc23)CC1 (stereo not drawn) [Example 17, 4-(1H--indol-3-yl)-α-[2-(acetyl-phenoxymethyl]-piperidine-1-ethanol hydrochloride] | 6 µM | 142% | -17% | -5% | -18% | -6% | 159% | 1.2% | 3.3% | > 100

Source: US4530932A, “4-(1H-indol-3-yl)-α-methyl-piperidine-1-ethanol derivatives” (Roussel Uclaf, priority 1982, dated 1985)
